Assay results reported in US20100022514A1, “Heterocycle Compounds and Methods of Use Thereof” (NORVARTIS AG, priority 2006, published 2010).
Like-named read-outs stand apart in the source and are kept apart here.

Key:
[1] = tested on: p21 promoter (p21-luc) in H1299 cells; experiment: p21 promoter luciferase assay using stably transfected p21-luc in H1299 cells; format: cell-based; settings: Homo sapiens, NCI-H1299
Description: The cell lines used are derived from H1299 (p21-luc). The growth media used is RPMI 1640, 10% FBS, 1% Pen/Strep and the selection media added is 500 μg/mL Geneticin (Gibco). The buffer used is 5× cell culture lysis buffer (Promega #E1531), stored at −20 C and the Luciferase assay reagent (Promega #E1483) is stored at −70° C. The results of the assay are analyzed using Wallac Software.
To assay Luciferase, the cell culture medium is removed after one day of growth and the flasks are washed once with PBS. The cells are trypsinized in 20 mL of media and the trypsin is neutralized. The cells are counted (0.5-1 mL) on a Vi-Cell XR cell viability analyzer.
Cells are then diluted to a concentration of approximately 5000 cells/200 μL, and 190 μL samples are aliquoted into each well of a Costar white 96-well TC treated white bottom plate with lid (Costar #3917). Plates are then incubated overnight at 37 C.
After a further day, a sample of the compound is added to the wells for assay.
After a further day, the cells are lysed and the luciferase activity of the lysed cells is measured. Each well is washed twice with PBS and 20 μL/well of 1× cell culture lysis buffer (dilute 5× to 1× in distilled water) is added to each well. The microtiter plates are then shaken on a microtiter plate shaker for 20 minutes at room temperate at a speed setting of 5-6. After removal from the shaker, 100 μL of Luciferase Reagent is added to each well. Each microtiter plate is then read on Wallac Envision instrument.

HDAC-1 = molecular target: T1, HDAC-1 (Homo sapiens, UniProt Q13547); experiment: Deacetylase fluorescence assay (HDAC-1); format: biochemical
T1 construct: made in house
T1 sequence (Q13547 whole entry): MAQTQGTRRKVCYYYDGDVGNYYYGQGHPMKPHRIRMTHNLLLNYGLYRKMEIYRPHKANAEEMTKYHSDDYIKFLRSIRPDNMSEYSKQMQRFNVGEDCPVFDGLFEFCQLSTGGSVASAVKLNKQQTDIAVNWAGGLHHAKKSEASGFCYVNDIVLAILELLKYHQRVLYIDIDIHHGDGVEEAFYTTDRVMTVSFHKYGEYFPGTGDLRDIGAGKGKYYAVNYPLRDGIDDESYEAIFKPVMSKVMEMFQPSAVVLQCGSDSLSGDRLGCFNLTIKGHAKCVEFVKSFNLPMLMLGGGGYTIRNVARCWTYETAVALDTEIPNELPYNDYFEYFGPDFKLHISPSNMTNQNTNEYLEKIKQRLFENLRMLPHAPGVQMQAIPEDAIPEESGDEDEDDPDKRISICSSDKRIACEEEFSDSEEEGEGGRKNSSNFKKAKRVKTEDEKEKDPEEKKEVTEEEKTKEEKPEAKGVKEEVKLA
Description: Conventional methods are used to express deacetylase enzymes and purify them from lysed cells. The following example describes an exemplary procedure, however equivalent procedures are within the scope of the invention.
The cell line used is a derivative of 293 cells overexpressing a fusion of the gene encoding each deacetylase protein with a nucleotide sequence encoding the Flag marker.
Cells are grown in Optimem, 2% Fetal Calf Serum, Pen/Strep. For enzyme preparation, Lysis buffer (IPLS) is 50 mM Tris-HCl, pH 7.5, 120 mM NaCl, 0.5 mM EDTA and 0.5% Nonidet P-40, to which is added one tablet of Protease inhibitors (Roche 11836170001) per 10 ml buffer. Other buffers are IPHS, which is IPLS containing 1 M NaCl; TBS (Sigma #T5912) dilute 10× stock to 1× with dH2O; HD buffer: 10 mM Tris pH 8.0 (1M Stock) 10 mM NaCl (5M Stock), 10% glycerol, and for dialysis: 400 μM PMSF is added (for 2 L: use 8 ml 100 mM Stock). Protease inhibitors (Complete mini, Boehringer Mannheim), 1 tablet/10 mL are added to all buffers but not used in buffers for enzyme assays.
Cells are harvested without using trypsin, and most cells are obtained easily in PBS, with gentle striking or agitation of flasks if necessary. More adherent cells are scraped in PBS. Cells are grown in 500 cm^2 trays, from which about half of the media is aspirated (50 ml total), then cells are scraped in the rest of the media and transferred to a centrifuge tube. Trays are washed with 25 ml cold PBS, scraped again to collect additional cells, and centrifuged at 1500 rpm at 4° C. for 5 min. Cells are washed at least 3 times in PBS to remove growth media, pelleting cells after each wash by centrifugation at 1500 rpm for 5 minutes. After washing, PBS is removed and the resulting cell pellet frozen at −80° C. for storage prior to purification.
For purification, cells are resuspended in lysis buffer, 12 ml of IPLS for cells collected from 10 500 cm trays. Cells are lysed at 4° C. for 3 hrs with rocking, and debris is removed by centrifugation for 20 min at 17,000 rpm in 30 ml centrifuge tubes. If supernatant is not clear afterward, centrifugation of the supernatant is repeated. Protein concentration of the whole cell lysate is determined (generally in the range of about 2-5 mg/ml).
For immunoprecipitation per mg of protein, 15 μL of anti-Flag M2-Agarose Affinity beads (Sigma #A2220) is used. Beads are prepared by washing 3 times with 10× bead volume of PBS and 1 time with IPLS, with centrifugation of the washes at 1500 rpm for 5 min. Whole cell lysate is incubated with the Ab-beads overnight at 4° C. Then beads are centrifuged and washed in 5× volume of the following buffers: three times in IPLS (30 sec at 4° C., spin at 1500 RPM for 5 min); three times in IPHS; and three times in TBS buffer. After each centrifugation, the supernatant is aspirated, leaving the pellet as dry as possible but avoiding sucking up any of the beads.
To elute the enzyme, beads are resuspended in 5× bead volume of TBS with protease inhibitor (Roche 11836170001) 1 tablet/10 mL. Enzyme is eluted with 400 μg/mL Flag peptide (Sigma #F-3290) for 3 hrs at 4° C. on rotator. Then beads are centrifuged, and the supernatant is transferred to a new tube to which is added 1/10 volume of glycerol. The supernatant is transferred to a dialysis cassette (Pierce #66410) using a 3 cc syringe and 18 G needle, and is dialyze sup in 2 L HD buffer for 2 hrs at 4° C. (1 L/hour). The resulting purified deacetylase is divided into aliquots (300 μL/tube), is snap frozen in dry ice bath, and is stored at −80° C.
For assay of deacetylase an assay based on Deacetylase Fluorescent Activity Assay/Drug Discovery Kit (BioMol # AK500) is used, however any equivalent deacetylase assay is within the scope of the invention.
The Fluorescent Assay Buffer (FAB) contains: 25 mM Tris-HCl, pH 8.0, 137 mM NaCl, 2.7 mM KCl and 1 mM MgCl2. […]

| SMILES | AC50 [1] | IC50 (HDAC-1; read-out: HDAC-1 IC50) | IC50 (HDAC-1) |
| --- | --- | --- | --- |
| Cc1ccc(S(=O)(=O)N2Cc3ccc(/C=C/C(=O)NO)cc3C2)cc1 [Example 8, (E)-N-Hydroxy-3-[2-(toluene-4-sulfonyl)-2,3-dihydro-1H-isoindol-5-yl]-acrylamide] | > 1000 nM | < 100 nM |  |
| CC(C)(C)c1[nH]c2ccccc2c1CCN1CCc2cc(/C=C/C(=O)NO)ccc2C1 [Example 74, (E)-3-{2-[2-(2-tert-Butyl-1H-indol-3-yl)-ethyl]-1,2,3,4-tetrahydro-isoquinolin-6-yl}-N-hydroxy-acrylamide] | 100 to 1000 nM | < 100 nM |  |
| O=C(/C=C/c1ccc2c(c1)CN(S(=O)(=O)C1CC1)C2)NO [Example 24, (E)-3-(2-Cyclopropanesulfonyl-2,3-dihydro-1H-isoindol-5-yl)-N-hydroxy-acrylamide] | > 1000 nM | 100 to 1000 nM |  |
| O=C(/C=C/c1ccc2c(c1)CN(C(=O)Cc1ccccc1)C2)NO [Example 26, (E)-N-Hydroxy-3-(2-phenylacetyl-2,3-dihydro-1H-isoindol-5-yl)-acrylamide] | > 1000 nM | 100 to 1000 nM |  |
| COc1ccc(C(=O)N2CCc3ccc(CCC(=O)NO)cc3C2)cc1 [Example 58, N-Hydroxy-3-[2-(4-methoxy-benzoyl)-1,2,3,4-tetrahydro-isoquinolin-7-yl]-propionamide] | > 1000 nM | 100 to 1000 nM |  |
| CC(C)(C)C(=O)N1Cc2ccc(/C=C/C(=O)NO)cc2C1 [Example 3, (E)-3-[2-(2,2-Dimethyl-propionyl)-2,3-dihydro-1H-isoindol-5-yl]-N-hydroxy-acrylamide] | > 1000 nM | 100 to 1000 nM |  |
| CN(C)c1ccc(C(=O)N2CCc3cc(CCC(=O)NO)ccc3C2)cc1 [Example 87, 3-[2-(4-Dimethylamino-benzoyl)-1,2,3,4-tetrahydro-isoquinolin-6-yl]-N-hydroxy-propionamide] | > 1000 nM | 100 to 1000 nM |  |
| Cc1nn(C)c(C)c1CN1CCc2ccc(/C=C/C(=O)NO)cc2C1 [Example 52, (E)-N-Hydroxy-3-[2-(1,3,5-trimethyl-1H-pyrazol-4-ylmethyl)-1,2,3,4-tetrahydro-isoquinolin-7-yl]-acrylamide] | > 1000 nM | 100 to 1000 nM |  |
| O=C(/C=C/c1ccc2c(c1)CN(C(=O)C1CCCC1)C2)NO [Example 22, (E)-3-(2-Cyclopentanecarbonyl-2,3-dihydro-1H-isoindol-5-yl)-N-hydroxy-acrylamide] | > 1000 nM | 100 to 1000 nM |  |
| Cc1noc(-c2ccccc2)c1CCN1CCc2cc(/C=C/C(=O)NO)ccc2C1 [Example 78, (E)-N-Hydroxy-3-{2-[2-(3-methyl-5-phenyl-isoxazol-4-yl)-ethyl]-1,2,3,4-tetrahydro-isoquinolin-6-yl}-acrylamide] | > 1000 nM | < 100 nM |  |
| O=C(/C=C/c1ccc2c(c1)CN(S(=O)(=O)c1ccncc1)C2)NO [Example 6, (E)-N-Hydroxy-3-[2-(pyridine-4-sulfonyl)-2,3-dihydro-1H-isoindol-5-yl]-acrylamide] | > 1000 nM | 100 to 1000 nM |  |
| Cc1[nH]c2ccccc2c1CCN1CCc2ccc(CCC(=O)NO)cc2C1 [Example 37, N-Hydroxy-3-{2-[2-(2-methyl-1H-indol-3-yl)-ethyl]-1,2,3,4-tetrahydro-isoquinolin-7-yl}-propionamide] | > 1000 nM | > 1000 nM |  |
| Cc1[nH]c2ccccc2c1CCN1CCCc2cc(/C=C/C(=O)NO)ccc2C1 [Example 41, (E)-N-Hydroxy-3-{2-[2-(2-methyl-1H-indol-3-yl)-ethyl]-2,3,4,5-tetrahydro-1H-benzo[c]azepin-7-yl}-acrylamide] | > 1000 nM | < 100 nM |  |
| O=C(/C=C/c1ccc2c(c1)CN(S(=O)(=O)c1ccccc1)CC2)NO [Example 54, (E)-3-(2-Benzenesulfonyl-1,2,3,4-tetrahydro-isoquinolin-7-yl)-N-hydroxy-acrylamide] | > 1000 nM | 100 to 1000 nM |  |
| Cc1[nH]c2ccccc2c1CCN1Cc2ccc(/C=C/C(=O)NO)cc2C1 [Example 29, (E)-N-Hydroxy-3-{2-[2-(2-methyl-1H-indol-3-yl)-ethyl]-2,3-dihydro-1H-isoindol-5-yl}-acrylamide] | 100 to 1000 nM |  | < 100 nM |
| O=C(/C=C/c1ccc2c(c1)CN(C(=O)Cc1ccc(Cl)cc1)CC2)NO [Example 66, (E)-3-{2-[2-(4-Chloro-phenyl)-acetyl]-1,2,3,4-tetrahydro-isoquinolin-7-yl}-N-hydroxy-acrylamide] | > 1000 nM | < 100 nM |  |
| Cc1noc(-c2ccccc2)c1CCN1Cc2ccc(/C=C/C(=O)NO)cc2C1 [Example 34, (E)-N-Hydroxy-3-{2-[2-(3-methyl-5-phenyl-isoxazol-4-yl)-ethyl]-2,3-dihydro-1H-isoindol-5-yl}-acrylamide] | > 1000 nM | 100 to 1000 nM |  |
| COc1cccc(S(=O)(=O)N2CCc3cc(/C=C/C(=O)NO)ccc3C2)c1 [Example 83, (E)-N-Hydroxy-3-[2-(3-methoxy-benzenesulfonyl)-1,2,3,4-tetrahydro-isoquinolin-6-yl]-acrylamide] | > 1000 nM | 100 to 1000 nM |  |
| O=C(/C=C/c1ccc2c(c1)CN(S(=O)(=O)c1cccnc1)C2)NO [Example 7, (E)-N-Hydroxy-3-[2-(pyridine-3-sulfonyl)-2,3-dihydro-1H-isoindol-5-yl]-acrylamide] | > 1000 nM | 100 to 1000 nM |  |
| COc1ccc(C(=O)N2CCc3ccc(/C=C/C(=O)NO)cc3C2)cc1 [Example 57, (E)-N-Hydroxy-3-[2-(4-methoxy-benzoyl)-1,2,3,4-tetrahydro-isoquinolin-7-yl]-acrylamide] | > 1000 nM | < 100 nM |  |
| O=C(/C=C/c1ccc2c(c1)CN(C(=O)c1cccs1)C2)NO [Example 18, (E)-N-Hydroxy-3-[2-(thiophene-2-carbonyl)-2,3-dihydro-1H-isoindol-5-yl]-acrylamide] | > 1000 nM | < 100 nM |  |
| CS(=O)(=O)N1Cc2ccc(/C=C/C(=O)NO)cc2C1 [Example 4, (E)-N-Hydroxy-3-(2-methanesulfonyl-2,3-dihydro-1H-isoindol-5-yl)-acryl amide] | > 1000 nM | 100 to 1000 nM |  |
| O=C(/C=C/c1ccc2c(c1)CN(S(=O)(=O)c1cccc(C(F)(F)F)c1)C2)NO [Example 12, (E)-N-Hydroxy-3-[2-(3-trifluoromethyl-benzenesulfonyl)-2,3-dihydro-1H-isoindol-5-yl]-acrylamide] | > 1000 nM | 100 to 1000 nM |  |
